One test relates to S1P receptors. Conditions: transfected cells expressing individual S1P receptors; cited from earlier work.
For test [1], the system named is neonatal DRG-SC co-cultures. The test is described as follows: Myelination in neonatal DRG-SC co-cultures. The test is classed as cell-based. An excerpt:
TNF-α and IFN-γ (labeled as cytokines) acted synergistically to decrease cell viability via NOS induction and ceramide accumulation in immortalized SCs (FIG. 4) (Nagano et al., 2001). Neither cytokine alone induced cell death. These cytokines also exerted a synergistic inhibitory action on myelination in neonatal DRG-SC co-cultures, which is evident after 3 days of treatment.

A further test relates to T cell. As to conditions: cited from earlier work.
The subject of test [2] is B7-2 deficient NOD mice. The test is described as follows: Electrophysiological studies of sciatic nerve function in vivo. Further details: species or system mouse. Conditions: FTY720 1 mg/kg oral gavage once daily for 1 month. As to the method: (§1) Female B7-2 deficient NOD mice were used since they are more prone to develop SAP than their male counterparts (Salomon et al., supra). The mice were 7 months of age at the start of the study. Animals were given FTY720 (aqueous solution) at doses of 0.3 mg/kg or 1 mg/kg or vehicle alone by oral gavage once daily for 1 month. The concentrations were chosen based on dose-response studies with regard to the depletion of peripheral lymphocytes, and data from EAE studies in rats (Brinkmann et al., 2002; Fujino et al., 2003).
Electrophysiological studies were performed to assess the effect of FTY720 on sciatic nerve function in vivo in a subset of the study animals. […] FIG. 6 likewise illustrates that FTY720 treatment improves DL and CV (FIG. 6B, showing a summary of the results from experiments performed on 12 nerves from 6 water-treated mice and 14 nerves from 7 FTY720-treated mice) but not the amplitude of sciatic CMAPs (FIG. 6A).

Another test concerns lymphocyte. As to conditions: cited from earlier work.
In test [3] the test system is B7-2 deficient NOD mice. The test is described as follows: Demyelination and loss of myelinated fibers in epon sections. Conditions: 1.0 mg/kg, p<0.015, n=7. The test is classed as in vivo, mouse. As for the experimental part: as §1
Epon sections were prepared from vehicle-treated mice (n=6) and mice treated with 1.0 mg/kg FTY720 (n=7). […] These differences were statistically different with a p value of less than 0.015. The percentage of loss of myelinated fibers in epon sections was assessed by a blinded observer using a grid. Demyelination was graded as follows: 1, isolated demyelinated axons perivascular or scattered; 2, many foci of perivascular demyelination; 3, extensive demyelination, perivascular and confluent.

The subject of test [4] is peripheral blood lymphocyte. The test is described as follows: Induction of peripheral blood lymphopenia. The test is classed as in vivo, mouse. As to the method: as §1
The effectiveness of FTY720 was also monitored by the induction of peripheral blood lymphopenia. The peripheral blood lymphocyte count was decreased to 50-60% of vehicle-treated ones by FTY720 (0.3 mg/kg) (n=4) and to 25-30% by FTY720 (1 mg/kg) (n=3).

Test [5] concerns B7-2 deficient NOD mice. The test can be described thus: Histological evaluation of inflammatory cell infiltration in sciatic nerve sections. As to conditions: 1.0 mg/kg; quantitative (p<0.02) and semi-quantitative (p<0.003) method; n=7. The test is classed as in vivo, mouse. As to the method: as §1
To further evaluate the effect of FTY720 on B7-2 deficient NOD mice, histological evaluation was performed to assess inflammatory cell infiltration. […] For quantitative method, tissue areas were measured by image analysis and the number of inflammatory cells counted at ×20 magnification. The results were averaged and expressed as cells per mm^2 tissue section. For semi-quantitative method, inflammation was graded as: 1, a few scattered mononuclear inflammatory cells often subperineurial; 2, perivenular cuffing with mononuclear inflammatory cells (one or two foci); 3, extensive multifocal perivenular cuffing and widespread endoneurial inflammation.

The subject of test [6] is B7-2 deficient NOD mice. The test can be described thus: Clinical scores and grip strength in spontaneous autoimmune polyneuropathy (SAP). The test is classed as in vivo, mouse. As to the method: as §1
To determine the effect of FTY720 on clinical scores and grip strength of B7-2 deficient NOD mice, both qualitative and quantitative assessment was performed by blinded lab personnel. For qualitative assessment, a nominal scale (with 0 as normal and 5 as death) described by other investigators (Zhu et al., 2001a) was used. For quantitative assessment, hindlimb and forelimb strength was measured with a grip strength meter (Columbus Instruments). […] Similar results were observed when forelimb and hindlimb strength was assessed quantitatively.

The test system of the next test is medullary thymocytes. Conditions: cited from earlier work.

Some results are limits rather than exact numbers.

Regarding `CCCCCCCCc1ccc(CC[C@](N)(CO)COP(=O)(O)O)cc1` [FTY720-P], the “agonist activity at S1P receptors” value in the test on S1P receptors is “potent agonist of S1P receptors with the exception of S1P2”.
On to IFN-γ: pro-inflammatory Th1 cytokine, for which the effect on myelination entry in test [1] (IFN-γ at 50-300 U/ml alone) was “No effect on myelination”.
Consider `CCCCCCCCCCCCC/C=C/[C@@H](O)[C@@H](N)COP(=O)(O)O` [S1P, sphingosine 1-phosphate], for which, in the test with T cell (high concentrations are inhibitory), the “concentration that elicits T cell chemotaxis” value was at most 0.1 µM.
Take `CCCCCCCCc1ccc(CCC(N)(CO)CO)cc1` [FTY720, 2-amino-2-[2-(4-octylphenyl)ethyl]-1,3-propanediol]: the “Distal Latency” value in the test with B7-2 deficient NOD mice [2] (sciatic nerve, vehicle 2.59 ± 0.3, p < 0.02) stood at 1.58 ± 0.3 ms. The “Conduction Velocity” value in the test on B7-2 deficient NOD mice [2] (sciatic nerve, vehicle 14.7 ± 3.0, p < 0.01) came to 22.8 ± 3.2 m/s. In the test on B7-2 deficient NOD mice [2] (vehicle 3.75 ± 1.8), the “Amplitude of sciatic CMAPs” value was 3.8 ± 0.7 mV. Also, the “T cell chemotactic activity” value in the test on T cell is given as “lacks T cell chemotactic activity”. Further, the “concentration that elicits lymphocyte apoptosis” value in the test on lymphocyte is above 3 µM. In the test with B7-2 deficient NOD mice [3], the “percentage of myelinated fibers lost vs vehicle” value is “decrease in the percentage of myelinated fibers lost”. Besides, the “peripheral blood lymphocyte count, % of vehicle-treated” value in [4] (0.3 mg/kg oral once daily, n=4) is 50-60%; in test [4] (1 mg/kg oral once daily, n=3), 25-30%. For the same molecule, the “inflammatory cell infiltration vs water-treated mice” value in the test on B7-2 deficient NOD mice [5] is recorded as “decreased inflammatory cell infiltration”. For the same molecule, in the test with B7-2 deficient NOD mice [6] (0.3 mg/kg oral once daily for 1 month, p less than 0.03, n=5), the “difference in clinical score between 7 months and 8 months” value is “statistically significant”. Moreover, in the test with B7-2 deficient NOD mice [6] (1.0 mg/kg oral once daily for 1 month, grip strength meter), the “forelimb and hindlimb grip strength vs vehicle or 0.3 mg/kg” value is on record as “increased grip strength”. In the test on B7-2 deficient NOD mice [6] (1.0 mg/kg oral once daily for 1 month, scale 0 normal to 5 death, n=10), the “clinical scores, month 7 vs month 8” value is “did not increase between month 7 and month 8”.
Consider `CCCCCCCOc1ccc(CC[C@@](C)(N)CO)cc1` [AAL(R)], for which the “time to downregulation of CD69” value in the test on medullary thymocytes was at most 2 h.
TNF-α: the effect on myelination entry was “No effect on myelination” in test [1] (TNF-α 10 ng/ml alone) and “modest inhibitory action” in [1] (TNF-α 100 ng/ml alone).

Source of the values: patent publication US9101576B2, “Treatment of inflammatory diseases” (The University of Chicago, priority 2006, dated 2015).
